# Results taken from patent US20130203805A1, “Methods for treating anemia using inhibitors of hypoxia-inducible factor (HIF) hydroxylase” (FIBROGEN, INC., priority 2001, published 2013).
# Test system: erythropoietin transcript
# Test: Erythropoietin transcript in tissues by Murine genome U74AV2 array (Example 7)
# Format: in vivo, male Swiss Webster mice
# Conditions: mice
# Procedure: Twenty-five male Swiss Webster mice (35-38 g) were obtained from Simonson, Inc., and treated by oral gavage […] for 2.5 days (5 doses) with a 4 ml/kg volume of either 0.5% carboxymethyl cellulose (CMC; Sigma-Aldrich, St. Louis Mo.) (0 mg/kg/day), compound C at 30 or 100 mg/kg/day […], or blood was collected daily from animals as described above to induce anemia. Blood samples were collected and kidney, liver, brain, lung, heart, and skeletal muscle tissues were harvested and processed as for Example 2, Experiment I (supra).
# RNA isolation was carried out using the following protocol. A 50 mg section of each organ was diced, 875 μl of RLT buffer (RNEASY kit; Qiagen Inc., Valencia Calif.) was added, and the pieces were homogenized for about 20 seconds using a rotor-stator POLYTRON homogenizer (Kinernatica, Inc., Cincinnati Ohio). The homogenate was micro-centrifuged for 3 minutes to pellet insoluble material, the supernatant was transferred to a new tube and RNA was isolated using an RNEASY kit (Qiagen) according to the manufacturer's instructions. The RNA was eluted into 80 μL of water and quantitated with RIBOGREEN reagent (Molecular Probes, Eugene Oreg.). Genomic DNA was then removed from the RNA using a DNA-FREE kit (Ambion Inc, Austin Tex.) according to the manufacturer's instructions. The absorbance at 260 and 280 nm was measured to determine RNA purity and concentration.
# RNA was precipitated in 0.3 M sodium acetate (pH 5.2), 50 ng/ml glycogen, and 2.5 volumes of ethanol for one hour at −20° C. Samples were centrifuged and pellets were washed with cold 80% ethanol, dried, and resuspend in water. Double stranded cDNA was synthesized using a T7-(dT)24 first strand primer (Affymetrix, Inc., Santa. Clara Calif.) and the […] CHOICE system (Invitrogen) according to the manufacturer's instructions. The final cDNA was extracted with an equal volume of 25:24:1 phenol:chloroform:isoamyl alcohol using a PHASE LOCK GEL insert (Brinkman, Inc., Westbury N.Y.). The aqueous phase was collected and cDNA was precipitated using 0.5 volumes of 7.5 M ammonium acetate and 2.5 volumes of ethanol. Alternatively, cDNA was purified using the […] sample cleanup module (Affymetrix) according to the manufacturer's instructions. […]
# Hybridization cocktail was prepared by bringing 5 μg probe to 100 μl in 1× hybridization buffer (100 mM MES, 1 M [Na^+], 20 mM EDTA, 0.01% Tween 20), 100 μg/ml herring sperm DNA, 500 μg/ml acetylated BSA, 0.03 nM control oligo B2 (Affymetrix), and 1× […] eukaryotic hybridization control (Affymetrix). […] Arrays were analyzed using a […] scanner (Affymetrix) and Microarray Suite software (Affymetrix). […]
# [1] = 30 or 100 mg/kg/day oral gavage for 4 days, FIG. 6
structure (smiles),measurement,setting,value
"O=C(O)CNC(=O)c1nc(Cl)c2ccccc2c1O [Compound C, [(1-chloro-4-hydroxy-isoquinoline-3-carbonyl)-amino]-acetic acid]","erythropoietin transcript, brain",[1],dose-dependent increase
same,"erythropoietin transcript, kidney",[1],dose-dependent increase
same,"erythropoietin transcript, liver",[1],dose-dependent increase
same,level of expression versus transcription seen with bleed-induced anemia in the same tissue,"brain, kidney, liver, 30 or 100 mg/kg/day oral gavage",equivalent to or exceeded
